We go through 77 sequences from the supplement of paper PMC11208160.
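Further: IS621 recombinase and bridge RNA in Escherichia coli cells.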

This series can be described thus: recombinant barcode read abundance after kanamycin selection (control-corrected) (log10(CPM+1)); higher = more efficient recombination; sequences stand for … in AGTGCAGAGAAAATCGGCCAGTTTTCTCTGCCTGCAGTCCGCATGCCGT…AGATTTATGCAGCGGACTGCCTTTCTCCCAAAGTGATAAACCGGACAGTATCATGGACCGGTTTTCCCGGTAATCCGTATTTGCAAGGTTGGTTTCACT; site = the 11-nt target. In a few lines:
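The screen was pooled in E. coli and paired targets with IS621 bridge RNA target-binding loops. Recombination efficiency is taken from barcode counts per million at recombinant junctions, averaged and adjusted against the control. Values, in the form log10(CPM+1), come from duplicate plating on chloramphenicol/ampicillin LB agar or on chloramphenicol/ampicillin/kanamycin with 0.1 mM IPTG.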
Consider “TCGAACCCTTGGGTTCTAACCTGTTGCCT (site TCGAACCCTAG)”, for which the “recombinant barcode read abundance (log10)” value amounted to 0.639.
Next, “TCGAACCCTTGGGTTCTAACCTGTTGCCT (site TCGAAGCCTAG)”: 0.115; “TCGAACCCTTGGGTTCTAACCTGTTGCCT (site TCGAATCCTAG)”: 0.151.
Under “TCGAACGCTTGGGTTCTAACCTGTTGCTT (site CACGGGACTCT)” stands 0.115; under “TCGAACGCTTGGGTTCTAACCTGTTGCTT (site TCGAACGCTAA)”, 0.135; under “TCGACCACTTGGGTTCTAACCTGTTGCCT (site TATACCACTAG)”, 0.0386.
Next, “TCGACCACTTGGGTTCTAACCTGTTGCCT (site TCGACCACTAG)”: 0.115; “TCGAGGCCTTGGGTTCTAACCTGTTGCGG (site TAGAGCCCTCC)”: 0.724; “TCGAGGCCTTGGGTTCTAACCTGTTGCGG (site TCGAGGCCTCC)”: 1.34.
For “TCGAGTCCTTGGGTTCTAACCTGTTGCCA (site TCGAGTCCTTG)”, the “recombinant barcode read abundance (log10)” value was 0.084.
Next, “TCGAGTCCTTGGGTTCTAACCTGTTGCCA (site TGGTGTCCTTG)”: 0; “TCGATCACTTGGGTTCTAACCTGTTGCCT (site TCGATCACTAG)”: 0.738; “TCGATCACTTGGGTTCTAACCTGTTGCCT (site TCGATTACTAG)”: 0.0188.
Next, “TCGATCCCTTGGGTTCTAACCTGTTGCGT (site CTTTGAACTTA)”: 0.315; “TCGATCCCTTGGGTTCTAACCTGTTGCGT (site TCGATCCCTAC)”: 1.95.
Under “TCGCACACTTGGGTTCTAACCTGTTGCTG (site TAGCACACTCG)” stands 0.0637; under “TCGCACACTTGGGTTCTAACCTGTTGCTG (site TCGCACACTCA)”, 0.548.
On to “TCGCGGACTTGGGTTCTAACCTGTTGCCT (site TCACGGACTAG)”, for which the “recombinant barcode read abundance (log10)” value worked out at 0.464.
Turning to “TCGCGGACTTGGGTTCTAACCTGTTGCCT (site TCCCGGACTAG)”, the “recombinant barcode read abundance (log10)” value turned out to be 0.243.
Next, “TCGCGGACTTGGGTTCTAACCTGTTGCCT (site TCGCGGACTAG)”: 0.168; “TCGCGGACTTGGGTTCTAACCTGTTGCCT (site TCTCGGACTAG)”: 0.0887; “TCGGAGTCTTGGGTTCTAACCTGTTGCAT (site TCGGAGTCTAA)”: 0.5.
As for “TCGGAGTCTTGGGTTCTAACCTGTTGCAT (site TCGGAGTCTAC)”, the “recombinant barcode read abundance (log10)” value was 1.03.
Consider “TCGGAGTCTTGGGTTCTAACCTGTTGCAT (site TCGGAGTCTAG)”, for which the “recombinant barcode read abundance (log10)” value came to 1.4.
Next, “TCGGAGTCTTGGGTTCTAACCTGTTGCAT (site TCGGAGTCTAT)”: 2.29.
Next, “TCGGAGTCTTGGGTTCTAACCTGTTGCGC (site CTATGACCTCA)”: 0.0526; “TCGGAGTCTTGGGTTCTAACCTGTTGCGC (site TCGGAGTCTGC)”: 1.37; “TCGGAGTCTTGGGTTCTAACCTGTTGCTG (site TCGGAGTCTCA)”: 0.963.
Next, “TCGGAGTCTTGGGTTCTAACCTGTTGCTG (site TCGGAGTCTCG)”: 0.446; “TCGGATACTTGGGTTCTAACCTGTTGCTT (site TCGGATACTAA)”: 0.659; “TCGGATACTTGGGTTCTAACCTGTTGCTT (site TCGGATACTAC)”: 0.249.
For “TCGGATACTTGGGTTCTAACCTGTTGCTT (site TCGGATACTAG)”, the “recombinant barcode read abundance (log10)” value turned out to be 0.759.
Under “TCGGATACTTGGGTTCTAACCTGTTGCTT (site TCGGATACTAT)” stands 0.323; under “TCGTCACCTTGGGTTCTAACCTGTTGCAT (site CTAGTGGCTCG)”, 0.
Next, “TCGTCACCTTGGGTTCTAACCTGTTGCAT (site TCGTCACCTAT)”: 0.0694.
Next, “TCGTCATCTTGGGTTCTAACCTGTTGCCT (site TCGTCATCTAG)”: 0.21; “TCGTCATCTTGGGTTCTAACCTGTTGCCT (site TCGTCCTCTAG)”: 0.276; “TCGTGCCCTTGGGTTCTAACCTGTTGCTG (site TCGTGCCCTAA)”: 0.0676.
For “TCGTGCCCTTGGGTTCTAACCTGTTGCTG (site TCGTGCCCTCA)”, the “recombinant barcode read abundance (log10)” value is 0.156.
Under “TCGTTCCCTTGGGTTCTAACCTGTTGCTT (site TCGTTCCCTAA)” stands 0.105.
Next, “TCGTTCCCTTGGGTTCTAACCTGTTGCTT (site TCGTTGCCTAG)”: 0.0502.
Next, “TCGTTGCCTTGGGTTCTAACCTGTTGCCT (site TCGTTCCCTAA)”: 0.695; “TCGTTGCCTTGGGTTCTAACCTGTTGCCT (site TCGTTGCCTAG)”: 0.533; “TCTAACCCTTGGGTTCTAACCTGTTGCGG (site TCAAACCCTCC)”: 0.332.
Consider “TCTAACCCTTGGGTTCTAACCTGTTGCGG (site TCCAACCCTCC)”, for which the “recombinant barcode read abundance (log10)” value turned out to be 0.0105.
Next, “TCTAACCCTTGGGTTCTAACCTGTTGCGG (site TCGAACCCTCC)”: 0.091; “TCTAACCCTTGGGTTCTAACCTGTTGCGG (site TCTAACCCTCC)”: 1.09; “TCTAAGTCTTGGGTTCTAACCTGTTGCCG (site TCTAAGTCTAG)”: 0.0709.
As to “TCTAAGTCTTGGGTTCTAACCTGTTGCCG (site TCTAAGTCTCG)”, the “recombinant barcode read abundance (log10)” value came to 0.137.
“TCTAAGTCTTGGGTTCTAACCTGTTGCCG (site TCTAAGTCTGG)”: the “recombinant barcode read abundance (log10)” value came to 0.0885.
Next, “TCTAAGTCTTGGGTTCTAACCTGTTGCCG (site TCTAAGTCTTG)”: 0.483; “TCTACTTCTTGGGTTCTAACCTGTTGCCT (site TCTACATCTAG)”: 0.0183; “TCTACTTCTTGGGTTCTAACCTGTTGCCT (site TCTACCTCTAG)”: 0.123.
Under “TCTACTTCTTGGGTTCTAACCTGTTGCCT (site TCTACGTCTAG)” stands 0.0937; under “TCTACTTCTTGGGTTCTAACCTGTTGCCT (site TCTACTTCTAG)”, 0.136; under “TCTAGACCTTGGGTTCTAACCTGTTGCCT (site TCTAGAACTAG)”, 0.
Next, “TCTAGACCTTGGGTTCTAACCTGTTGCCT (site TCTAGACCTAG)”: 0.0778.
For “TCTAGACCTTGGGTTCTAACCTGTTGCCT (site TCTAGAGCTAG)”, the “recombinant barcode read abundance (log10)” value was 0.139.
Under “TCTAGACCTTGGGTTCTAACCTGTTGCCT (site TCTAGATCTAG)” stands 0.03.
For “TCTAGAGCTTGGGTTCTAACCTGTTGCGG (site CCTCGAGCTCC)”, the “recombinant barcode read abundance (log10)” value was 0.176.
“TCTAGAGCTTGGGTTCTAACCTGTTGCGG (site TCTAGAGCTCC)”: the “recombinant barcode read abundance (log10)” value was 1.61.
Next, “TCTAGTCCTTGGGTTCTAACCTGTTGCCT (site TCTAGACCTTG)”: 0.418.
Next, “TCTAGTCCTTGGGTTCTAACCTGTTGCCT (site TCTAGTCCTAG)”: 0.036.
For “TCTCAACCTTGGGTTCTAACCTGTTGCCT (site TCTAAACCTAG)”, the “recombinant barcode read abundance (log10)” value was determined as 0.0445.
Under “TCTCAACCTTGGGTTCTAACCTGTTGCCT (site TCTCAACCTAG)” stands 1.33; under “TCTCAGGCTTGGGTTCTAACCTGTTGCCG (site TCACAGGCTCG)”, 0.203; under “TCTCAGGCTTGGGTTCTAACCTGTTGCCG (site TCTCAGGCTCG)”, 0.0148.
Under “TCTCAGTCTTGGGTTCTAACCTGTTGCGG (site TCCCAGTCTCA)” stands 0.0631; under “TCTCAGTCTTGGGTTCTAACCTGTTGCGG (site TCTCAGTCTCC)”, 1.14; under “TCTCCAGCTTGGGTTCTAACCTGTTGCCT (site TCGCAAGCTAG)”, 0.0305.
Next, “TCTCCAGCTTGGGTTCTAACCTGTTGCCT (site TCTCCAGCTAG)”: 1.13; “TCTCGAGCTTGGGTTCTAACCTGTTGCGA (site CTGGCGCCTAT)”: 0.839; “TCTCGAGCTTGGGTTCTAACCTGTTGCGA (site TCTCGAGCTTC)”: 0.78.
Turning to “TCTCGGACTTGGGTTCTAACCTGTTGCCT (site TCACGGACTAG)”, the “recombinant barcode read abundance (log10)” value is 0.147.
Under “TCTCGGACTTGGGTTCTAACCTGTTGCCT (site TCCCGGACTAG)” stands 0.0144; under “TCTCGGACTTGGGTTCTAACCTGTTGCCT (site TCGCGGACTAG)”, 0.0137; under “TCTCGGACTTGGGTTCTAACCTGTTGCCT (site TCTCGGACTAG)”, 0.249.
